The results in this text go back to patent publication US7300546B2, “Cellulose fiber having improved biostability and the resulting products” (Weyerhaeuser Company, priority 2000, dated 2007).

The subject of the assay is cellulose fungal decay. The experiment in a line: Inground testing of cement-treated pulp sheets, subjective visual rating for deterioration (biodurability). To be noted: for biological protection: summary statement in Example 2. Also on record: species or system fungi. The procedure: Samples for testing were prepared by obtaining unbleached mixed conifer kraft pulp sheets produced in an interior British Columbia mill. […] Solutions of various biocides were made up so that the desired ultimate concentration of active material would be obtained by spraying each sample portion of pulp sheet with about 1 g of the biocidal solution per gram of pulp. […] Subsequently the treated sheets were reslurried in water having a pH ˜12 obtained from a cement board manufacturing facility and refined to a Canadian Standard Freeness (CSF) level of 450 mL. All refining was done in a pilot scale Model 202 Claflin refiner (available from Bolton-Emerson, Inc., Lawrence, Mass.). The treated and refined pulp was dewatered by centrifuging to a consistency of about 30% and then pin fluffed to ensure uniformity.
Treatments included copper sulfate at concentrations of 0.1, 0.3, and 0.5% Cu w/w based on dry pulp; zinc sulfate at concentrations of 0.1%, 0.3%, and 0.6% Zn; 0.2% propiconazole emulsion; didecyldimethylammonium chloride (DDAC) 0.2%, 0.5%; and 1.0%, and 1.0% DDAB. Treated fibers were also made using 1.0% DDAC with 0.05%, 0.10%, and 0.2% Cu added as copper sulfate. All concentrations are on a weight/weight basis.
Samples of 30 g of the treated pulps were reslurried in water and formed into sheets in an 8×8 inch (203×203 mm) sheet. The sheets were pressed to remove excess moisture then air dried. Each sheet was then cut in half and dipped for 30 seconds in a slurry of one part Portland cement in three parts by weight water. The coated and impregnated sheets were removed and drained, allowed to cure for two days wet, and then air dried. Each 4×8 inch ([…] mm) cement treated sheet was then enclosed in a 20 mesh stainless steel screen and half buried in the ground at a test site at Hilo, Hi. Samples were then removed after three month, six month, nine month, and twelve month periods for examination. Exposed sheets were assigned a subjective rating for deterioration based on visual observation (3=sound and 0=complete deterioration). The exposed sheets were also examined microscopically to determine the presence of fungal mycelium and cell wall deterioration. […] 1

`CCCCCCCCCC[N+](C)(C)CCCCCCCCCC.[Br-]` [DDAB, didecyldimethylammonium bromide]: under “DDAB at 1% (lower concentrations not tested)”, the below ground protection entry is on record as “effective below ground protection”.
Take `CCCCCCCCCC[N+](C)(C)CCCCCCCCCC.[Cl-]` [DDAC, didecyldimethylammonium chloride]: the below ground protection result (DDAC at 0.5% or greater) is recorded as “effective below ground protection”.
Turning to `O=S(=O)([O-])[O-].[Zn+2]` [Zinc compounds, zinc sulfate], the biological protection result is “poor”. The decay protection entry (at any concentration tested) is reported as “did not give effective decay protection”.
With `O=S(=O)([O-])[O-].[Cu+2]` [copper, copper sulfate], where the note is “after the one year underground tests”, the “reducing cellulose fungal decay” value is “effective in reducing cellulose fungal decay”. For the same compound, the below ground protection entry (copper at concentrations of 0.3% or greater) was “effective below ground protection”.
`CCCC1COC(Cn2cncn2)(c2ccc(Cl)cc2Cl)O1` (centres unmarked) [propiconazole]: the biological protection result was “poor”. Where the note is “at 0.2%”, the decay protection result is “did not give effective decay protection”.
